ChEMBL document CHEMBL6096696, “Structure-Activity Relationship Studies of an Autophagy Inhibitor That Targets the ATG14L-Beclin1 Protein-Protein Interaction Reveal Modifications That Improve Potency and Solubility and Maintain Selectivity” (J Med Chem, 2025)
The source made the active and inactive calls. No cut-off for these calls is given here.

Experiments:
A549 [1] = assay: Inhibition of autophagy in human A549 cells assessed as increase in fluorescence at 100 nM preincubated with DQ-BSA for 1 hr followed by compound addition and measured after 4 hrs by Hoechst 33342 staining based automated fluorescence microscopy analysis; format: functional, cell-based
HEK293T [2] = assay: Inhibition of C-terminal Nano-luc tagged ATG14L/C-terminal Halo-tagged Beclin 1 (unknown origin) PPI tranfected with HEK293T cells using […] at 100 uM incubated for 24 hrs by […] assay relative to control; format: cell-based; details: Homo sapiens, values are per cent of control
HeLa [3] = assay: Cytotoxicity against human HeLa cells expressing eGFP-LC3 at 100 uM; format: functional, cell-based
[4] = Selectivity ratio of inhibition of C-terminal Nano-luc tagged UVRAG/C-terminal Halo-tagged Beclin 1 (unknown origin) PPI tranfected with HEK293T cells to inhibition of C-terminal Nano-luc tagged ATG14L/C-terminal Halo-tagged Beclin 1 (unknown origin) PPI tranfected with HEK293T cells
[5] = Inhibition of C-terminal Nano-luc tagged UVRAG/C-terminal Halo-tagged Beclin 1 (unknown origin) PPI tranfected with HEK293T cells using […] incubated for 24 hrs by […] assay; format: cell-based, Homo sapiens
A549 [6] = assay: Inhibition of autophagy in human A549 cells assessed as increase in fluorescence at 100 uM preincubated with DQ-BSA for 1 hr followed by compound addition and measured after 4 hrs by Hoechst 33342 staining based automated fluorescence microscopy analysis; format: functional, cell-based
[7] = Inhibition of C-terminal Nano-luc tagged ATG14L/C-terminal Halo-tagged Beclin 1 (unknown origin) PPI tranfected with HEK293T cells using […] incubated for 24 hrs by […] assay; format: cell-based, Homo sapiens
[8] = Kinetic aqueous solubility of compound in PBS at pH 7.4 by absorbance based analysis; format: physicochemical; details: read-out: Kinetic_solubility
HEK293T [9] = assay: Inhibition of C-terminal Nano-luc tagged UVRAG/C-terminal Halo-tagged Beclin 1 (unknown origin) PPI tranfected with HEK293T cells using […] at 100 uM incubated for 24 hrs by […] assay relative to control; format: cell-based; details: Homo sapiens, values are per cent of control
HeLa [10] = assay: Inhibition of autophagy in human HeLa cells expressing eGFP-LC3 assessed as increase in LC3-II at 100 uM preincubated for 20 hrs followed by chloroquine addition and measured after 4 hrs by Hoechst 33342 staining based automated fluorescence microscopy analysis; format: functional, cell-based; details: time 24.0 hrs
HeLa [11] = assay: Inhibition of autophagy in human HeLa cells expressing eGFP-LC3 assessed as decrease in GFP puncta/cell at 100 uM preincubated for 20 hrs followed by chloroquine addition and measured after 4 hrs by Hoechst 33342 staining based automated fluorescence microscopy analysis; format: functional; details: time 24.0 hrs
A549 [12] = assay: Inhibition of autophagy in human A549 cells assessed as increase in fluorescence at 100 uM measured after 4 hrs by Hoechst 33342 staining based […] microscopy analysis; format: functional, cell-based
[13] = target: Beclin 1-associated autophagy-related key regulator (Homo sapiens) (UniProt Q6ZNE5); assay: Induction of stabilization of ATG14L in human A549 cells assessed as increase in melting temperature at 100 uM incubated for 24 hrs by CETSA method; format: cell-based
Chain of Beclin 1-associated autophagy-related key regulator (Homo sapiens) (Q6ZNE5 whole entry): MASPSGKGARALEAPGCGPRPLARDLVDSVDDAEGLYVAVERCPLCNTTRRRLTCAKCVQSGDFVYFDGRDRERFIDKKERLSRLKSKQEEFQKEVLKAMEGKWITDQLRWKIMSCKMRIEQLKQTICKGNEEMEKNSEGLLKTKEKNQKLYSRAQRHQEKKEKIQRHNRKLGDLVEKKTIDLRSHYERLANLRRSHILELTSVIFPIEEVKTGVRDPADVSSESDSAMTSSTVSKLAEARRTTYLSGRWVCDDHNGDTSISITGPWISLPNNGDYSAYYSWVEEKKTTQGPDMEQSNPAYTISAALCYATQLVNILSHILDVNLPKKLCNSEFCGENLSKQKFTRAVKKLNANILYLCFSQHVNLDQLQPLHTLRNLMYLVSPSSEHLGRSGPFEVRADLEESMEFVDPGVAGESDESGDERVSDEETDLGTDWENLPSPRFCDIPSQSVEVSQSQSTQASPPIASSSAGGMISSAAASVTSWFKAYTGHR

HeLa [14] = assay: Inhibition of autophagy in human HeLa cells expressing eGFP-LC3 at 50 uM preincubated for 20 hrs followed by chloroquine addition and measured after 4 hrs by Hoechst 33342 staining based automated fluorescence microscopy analysis; format: functional, cell-based; details: time 24.0 hrs
A549 [15] = assay: Inhibition of autophagy in human A549 cells assessed as increase in fluorescence at 20 uM preincubated with DQ-BSA for 1 hr followed by compound addition and measured after 4 hrs by Hoechst 33342 staining based automated fluorescence microscopy analysis; format: functional, cell-based
A549 [16] = assay: Inhibition of autophagy in human A549 cells assessed as increase in fluorescence at 12.5 uM preincubated with DQ-BSA for 1 hr followed by compound addition and measured after 4 hrs by Hoechst 33342 staining based automated fluorescence microscopy analysis; format: functional, cell-based

SMILES	residual binding, % of control (HEK293T [2]) [%]	Activity (HeLa [3])	Selectivity ratio [4]	inhibition (A549 [6])	IC50 [7] [µM]	solubility kinetic [8] [µM]	residual binding, % of control (HEK293T [9]) [%]	also measured
CO/C1=C\C(C)=C\[C@@H](C)[C@@H](O)[C@@H](C)C/C(C)=C/C=C/[C@H](OC)[C@@H]([C@@H](C)[C@@H](O)[C@H](C)[C@@]2(O)C[C@@H](O)[C@H](C)[C@@H](C(C)C)O2)OC1=O	–	–	–	–	–	–	–	inhibition (A549 [1]): inactive
CCCN1C(=O)COc2ccc(-c3cccc(C)c3C)cc21	63	Active	1.23	Active	32.3	> 100	77.7	IC50 [5]: 42.2 µM
CCCN1C(=O)COc2ccc(S(=O)(=O)Nc3cccc(C)c3C)cc21	72.3	–	–	Active; Compound Showed Normal Functioning Of Lysosomes And Endosomal Trafficking	56.3	> 100	–	inhibition (HeLa [10]): Active; inhibition (HeLa [11]): Active; Compared With Chloroquine And Compound 1E; inhibition (A549 [12]): Active; Activity [13]: Active
Cc1cccc(-c2ccc3c(c2)N(Cc2noc(C4CCC4)n2)C(=O)CO3)c1C	73.1	Active; Compound Showed Less Cytotoxicity	1.3	–	12.5	> 100	95.3	inhibition (HeLa [14]): Active
O=C1COc2ccc(-c3cccc(Cl)c3)cc2N1Cc1noc(C2CCC2)n1	85.1	Active	1.32	–	–	> 100	116	inhibition (HeLa [14]): inactive
O=C1COc2ccc(-c3ccc(Cl)cc3Cl)cc2N1Cc1noc(C2CCC2)n1	89.7	Active	1.17	–	–	> 100	105	inhibition (HeLa [14]): inactive
CCN(CC)CCCC(C)Nc1ccnc2cc(Cl)ccc12 (configuration not stated)	–	–	–	–	–	–	–	inhibition (A549 [15]): inactive
Nc1ncc(-c2ccnc(Nc3ccncc3)n2)c(CC2CC2)n1	–	–	–	–	–	–	–	inhibition (A549 [16]): inactive
CCCN1C(=O)COc2ccc(-c3ccccc3C)cc21	65	Active	1.3	Active	42.4	> 100	84.6	–
CCCN1C(=O)COc2ccc(-c3cccc(OC(F)(F)F)c3)cc21	75.3	Active	1.22	Active	24.3	> 100	92.4	–
CCN1C(=O)COc2ccc(S(=O)(=O)Nc3cccc(C)c3C)cc21	95.9	–	–	–	–	> 100	–	inhibition (HeLa [10]): Active; Activity [13]: inactive
C[C@@H]1COCCN1c1cc(=O)n2c(n1)N(Cc1cncc(Cl)c1)[C@H](C(F)(F)F)CC2	–	–	–	–	–	–	–	inhibition (A549 [16]): inactive
